A short description of the first data set: solvent given as SMILES. The following applies: in C1CCCCC1.
For `CC(C)[Si]1(C(C)C)c2cc(C=O)ccc2-c2ccc(N(C)C)cc21`, the emission maximum is reported as 414 nm.
`COc1cccc(C2=c3c(c4ccc(C(C)(C)C)cc4c4cc(C(C)(C)C)ccc34)=[N+]3C2=C(c2ccccc2)c2c(-c4cccc(OC)c4)c4c5ccc(C(C)(C)C)cc5c5cc(C(C)(C)C)ccc5c4n2[B-]3(F)F)c1` registered an emission maximum of 727 nm.
As for `Cc1ccc(C2=C3C=C(I)C=[N+]3[B-](F)(F)n3cccc32)cc1`, the emission maximum is 540 nm.

The same data set, now with this note: in C1CCOC1.
With `COc1cccc(C2=c3c(c4ccc(C(C)(C)C)cc4c4cc(C(C)(C)C)ccc34)=[N+]3C2=C(c2ccccc2)c2c(-c4cccc(OC)c4)c4c5ccc(C(C)(C)C)cc5c5cc(C(C)(C)C)ccc5c4n2[B-]3(F)F)c1`, the emission maximum was 737 nm.
In turn, `COc1ccc(/C=C/c2cc(/C=C/c3ccc(N(c4ccccc4)c4ccccc4)cc3)nc(/C=C/c3ccc(N(C)C)cc3)n2)cc1` registered an emission maximum of 436 nm.
`F[Si](c1ccccc1)(c1ccccc1)c1cccc2ccccc12` had an emission maximum of 332 nm.
The molecule `CC1=CC(C)=[N+]2C1=C(c1ccc(N(C)C)cc1)c1c(C)cc(C)n1[B-]2(F)F` showed an emission maximum of 513 nm.
The same measure, in the same setting: the same measure for `O=Cc1c(O)c(-c2nc3ccccc3s2)cc2ccccc12`: 497 nm; for `Cc1cc(C2=C(c3cc(C)sc3C)S(=O)(=O)c3ccccc32)c(C)s1`: 465 nm.

The data set is the same for the next values; noted with them: in C1COCCO1.
The molecule `C=Cc1ccc(-c2ccc(-c3nnc(-c4ccc(-c5nnc(-c6ccc(-c7ccc(C=C)cc7)s6)o5)cc4)o3)s2)cc1` registered an emission maximum of 397 nm.

The same data set, now with this note: in CC#N.
`CC(C)[Si]1(C(C)C)c2cc(C=O)ccc2-c2ccc(N(C)C)cc21` returned an emission maximum of 528 nm.
`COc1cccc(C2=c3c(c4ccc(C(C)(C)C)cc4c4cc(C(C)(C)C)ccc34)=[N+]3C2=C(c2ccccc2)c2c(-c4cccc(OC)c4)c4c5ccc(C(C)(C)C)cc5c5cc(C(C)(C)C)ccc5c4n2[B-]3(F)F)c1` had an emission maximum of 721 nm.
As for `COc1ccc(/C=C/c2cc(/C=C/c3ccc(N(c4ccccc4)c4ccccc4)cc3)nc(/C=C/c3ccc(N(C)C)cc3)n2)cc1`, the emission maximum is 463 nm.
Same read-out and setting: the same measure for `CN(C)c1ccc(/C=C2\CCCC2=O)cc1`: 488 nm.
For the molecule `CC1=CC(C)=[N+]2C1=C(c1ccc(N(C)C)cc1)c1c(C)cc(C)n1[B-]2(F)F`, the emission maximum is on record as 508 nm.
`O=Cc1c(O)c(-c2nc3ccccc3s2)cc2ccccc12`: the emission maximum is recorded as 505 nm.
For `C=Cc1ccc(-c2ccc(-c3nnc(-c4ccc(-c5nnc(-c6ccc(-c7ccc(C=C)cc7)s6)o5)cc4)o3)s2)cc1`, the emission maximum came to 400 nm.
With `O=c1c2cc(Cl)ccc2nc2n1[B-](F)(F)[n+]1ccccc1-2`, the emission maximum was found to be 439 nm.
The molecule `Cc1ccc(C2=C3C=C(I)C=[N+]3[B-](F)(F)n3cccc32)cc1` showed an emission maximum of 546 nm.

The same data set, now with this note: in CC(=O)C(C)(C)C.
As to `CC1=CC(C)=[N+]2C1=C(c1ccc(N(C)C)cc1)c1c(C)cc(C)n1[B-]2(F)F`, the emission maximum came out at 511 nm.

The data set is the same for the next values; noted with them: in CC(=O)N(C)C.
The molecule `C=Cc1ccc(-c2ccc(-c3nnc(-c4ccc(-c5nnc(-c6ccc(-c7ccc(C=C)cc7)s6)o5)cc4)o3)s2)cc1` registered an emission maximum of 407 nm.

Staying with this data set, now noted: in CC(C)=O.
`COc1ccc(/C=C/c2cc(/C=C/c3ccc(N(c4ccccc4)c4ccccc4)cc3)nc(/C=C/c3ccc(N(C)C)cc3)n2)cc1` gave an emission maximum of 452 nm.
`CN(C)c1ccc(/C=C2\CCCC2=O)cc1`: the emission maximum amounted to 474 nm.
As for `CC1=CC(C)=[N+]2C1=C(c1ccc(N(C)C)cc1)c1c(C)cc(C)n1[B-]2(F)F`, the emission maximum came out at 510 nm.
Molecule `O=Cc1c(O)c(-c2nc3ccccc3s2)cc2ccccc12` showed an emission maximum of 507 nm.

Still in this data set, the particulars now being: in CC(C)O.
Regarding `CN(C)c1ccc(/C=C2\CCCC2=O)cc1`, the emission maximum is listed as 472 nm.

Staying with this data set, now noted: in CCCCCC.
Take `CN(C)c1ccc(/C=C2\CCCC2=O)cc1`: the emission maximum is given as 405 nm.
Still for that read-out and setting: the same measure for `CC1=CC(C)=[N+]2C1=C(c1ccc(N(C)C)cc1)c1c(C)cc(C)n1[B-]2(F)F`: 511 nm.

The data set is the same for the next values; noted with them: in CCCCCCC.
For `COc1ccc(/C=C/c2cc(/C=C/c3ccc(N(c4ccccc4)c4ccccc4)cc3)nc(/C=C/c3ccc(N(C)C)cc3)n2)cc1`, the emission maximum was determined as 398 nm.

Staying with this data set, now noted: in CCCCCCCCCCO
For the molecule `C=Cc1ccc(-c2ccc(-c3nnc(-c4ccc(-c5nnc(-c6ccc(-c7ccc(C=C)cc7)s6)o5)cc4)o3)s2)cc1`, the emission maximum is 399 nm.

The same data set, now with this note: in CCCCCCCCO
For `C=Cc1ccc(-c2ccc(-c3nnc(-c4ccc(-c5nnc(-c6ccc(-c7ccc(C=C)cc7)s6)o5)cc4)o3)s2)cc1`, the emission maximum turned out to be 400 nm.

Staying with this data set, now noted: in CCCCCCO.
With `C=Cc1ccc(-c2ccc(-c3nnc(-c4ccc(-c5nnc(-c6ccc(-c7ccc(C=C)cc7)s6)o5)cc4)o3)s2)cc1`, the emission maximum is on record as 399 nm.

Staying with this data set, now noted: in CCCCO.
Molecule `CN(C)c1ccc(/C=C2\CCCC2=O)cc1` showed an emission maximum of 479 nm.
On the same count and under the same terms, the same measure for `C=Cc1ccc(-c2ccc(-c3nnc(-c4ccc(-c5nnc(-c6ccc(-c7ccc(C=C)cc7)s6)o5)cc4)o3)s2)cc1`: 400 nm.

The data set is the same for the next values; noted with them: in CCCO.
Molecule `CN(C)c1ccc(/C=C2\CCCC2=O)cc1` yielded an emission maximum of 479 nm.

The same data set, now with this note: in CCO.
Take `CC[N+](CC)=c1ccc2c(-c3ccccc3C(=O)O)c3c(=O)oc4cc5c(cc4c3oc-2c1)CCCN5C`: the emission maximum was 651 nm.
`CC(C)[Si]1(C(C)C)c2cc(C=O)ccc2-c2ccc(N(C)C)cc21` had an emission maximum of 565 nm.
On the same count and under the same terms, the same measure for `CN(C)c1ccc(/C=C2\CCCC2=O)cc1`: 480 nm.
`O=Cc1c(O)c(-c2nc3ccccc3s2)cc2ccccc12` came in with an emission maximum of 503 nm.
For `C=Cc1ccc(-c2ccc(-c3nnc(-c4ccc(-c5nnc(-c6ccc(-c7ccc(C=C)cc7)s6)o5)cc4)o3)s2)cc1`, the emission maximum is 400 nm.
`Cc1ccc(C2=C3C=C(I)C=[N+]3[B-](F)(F)n3cccc32)cc1` returned an emission maximum of 547 nm.
As to `CCN(CC)c1ccc2cc(C#N)/c(=N\C(C)=O)oc2c1`, the emission maximum turned out to be 462 nm.
The same measure, in the same setting: the same measure for `Cc1c(C)n2c(COC(=O)c3ccc(F)cc3)c(C)c(=O)n2c1=O`: 460 nm.

Still in this data set, the particulars now being: in CCOC(C)=O.
In the case of `CN(C)c1ccc(/C=C2\CCCC2=O)cc1`, the emission maximum was 448 nm.
Same read-out and setting: the same measure for `CC1=CC(C)=[N+]2C1=C(c1ccc(N(C)C)cc1)c1c(C)cc(C)n1[B-]2(F)F`: 510 nm; for `O=Cc1c(O)c(-c2nc3ccccc3s2)cc2ccccc12`: 501 nm.
In turn, `Cc1ccc(C2=C3C=C(I)C=[N+]3[B-](F)(F)n3cccc32)cc1` displayed an emission maximum of 543 nm.

Staying with this data set, now noted: in CCOCC.
Take `CC(C)[Si]1(C(C)C)c2cc(C=O)ccc2-c2ccc(N(C)C)cc21`: the emission maximum worked out at 449 nm.

The values are drawn from the Deep4Chem optical property database.
